Test results as given in ChEMBL document CHEMBL5705903, “A DNA Hypomethylation Signature Predicts Antitumor Activity of LSD1 Inhibitors in SCLC” (Cancer Cell, 2015).
The source made the active and inactive calls. The calls are words filed in the database; no cut-off is given here.

Experiments:
[1] = Effect on cleaved PARP level in human NCI-H1417 cells assessed as fold change at 10 nM measured after 14 days by Western blot analysis (reference value: 1.00); assay type: functional; details: time 14 day
[2] = Effect on cleaved PARP level in human NCI-H1417 cells assessed as fold change at 1000 nM measured after 14 days by Western blot analysis (reference value: 1.00); assay type: functional; details: time 14 day
[3] = Effect on cleaved PARP level in human NCI-H526 cells assessed as fold change at 1000 nM measured after 7 days by Western blot analysis (reference value: 1.00); assay type: functional; details: time 7 day
[4] = Effect on cleaved PARP level in human NCI-H524 cells assessed as relative expression at 10 nM measured after 10 days by Western blot analysis (reference value: 0.95); assay type: functional; details: time 10 day
[5] = Effect on cleaved PARP level in human NCI-H524 cells assessed as relative expression at 10 nM measured after 14 days by Western blot analysis (reference value: […]); assay type: functional; details: time 14 day
[6] = Effect on cleaved PARP level in human COLO-668 cells assessed as relative expression at 100 nM measured after 7 days by Western blot analysis (reference value: […]); assay type: functional; details: time 7 day
[7] = Effect on cleaved PARP level in human COLO-668 cells assessed as relative expression at 100 nM measured after 10 days by Western blot analysis (reference value: 1.07); assay type: functional; details: time 10 day
[8] = Effect on cleaved PARP level in human COLO-668 cells assessed as relative expression at 1000 nM measured after 10 days by Western blot analysis (reference value: 1.07); assay type: functional; details: time 10 day
[9] = Effect on cleaved PARP level in human NCI-H1694 cells assessed as relative expression at 10 nM measured after 10 days by Western blot analysis (reference value: 0.31); assay type: functional; details: time 10 day
[10] = Effect on cleaved PARP level in human NCI-H510 cells assessed as relative expression at 100 nM measured after 14 days by Western blot analysis (reference value: 0.01); assay type: functional, NCI-H510A; details: time 14 day
[11] = Effect on cleaved PARP level in human NCI-H510 cells assessed as fold change at 100 nM measured after 10 days by Western blot analysis (reference value: 1.00); assay type: functional, NCI-H510A; details: time 10 day
[12] = Effect on cleaved PARP level in human NCI-H889 cells assessed as relative expression at 100 nM measured after 7 days by Western blot analysis (reference value: 0.34); assay type: functional; details: time 7 day
[13] = Effect on cleaved PARP level in human NCI-H889 cells assessed as relative expression at 1000 nM measured after 10 days by Western blot analysis (reference value: 0.33); assay type: functional; details: time 10 day
[14] = Effect on cleaved PARP level in human NCI-H2171 cells assessed as fold change at 1000 nM measured after 10 days by Western blot analysis (reference value: 1.00); assay type: functional; details: time 10 day
[15] = Effect on cleaved PARP level in human NCI-H146 cells assessed as fold change at 100 nM measured after 14 days by Western blot analysis (reference value: 1.00); assay type: functional; details: time 14 day
[16] = Toxicity in rat assessed as suppression of erythroid maturation in bone marrow measured for 28 days; details: in vivo, 672 h, time 28 day
[17] = Toxicity in dog assessed as suppression of platelet in bone marrow measured for 28 days; assay type: cell-based, Canis lupus familiaris; details: 672 h, time 28 day
NCI-H526 [18] = test: Antitumor activity against human NCI-H526 cells xenografted in nude mouse assessed as mean tumor volume at 0.5 mg/kg, po administered daily measured twice weekly (reference value: 2359 +/- 247 mm3); assay type: functional
NCI-H69 [19] = test: Antitumor activity against human NCI-H69 cells xenografted in nude mouse assessed as mean tumor volume at 1.5 mg/kg, po administered daily measured twice weekly (reference value: 1063 +/- 161 mm3); assay type: functional
NCI-H69 [20] = test: Antitumor activity against human NCI-H69 cells xenografted in nude mouse assessed as mean tumor volume at 0.5 mg/kg, po administered daily measured twice weekly (reference value: 1063 +/- 161 mm3); assay type: functional
NCI-H2171 = test: Antitumor activity against human NCI-H2171 cells xenografted in nude mouse assessed as mean tumor volume at […] mg/kg, po administered daily measured twice weekly (reference value: 1553 +/- 339 mm3); assay type: functional; details: 1.25 mg/kg
NCI-H526 [21] = test: Antitumor activity against human NCI-H526 cells xenografted in nude mouse assessed as tumor growth inhibition at 0.5 mg/kg, po administered daily measured twice weekly relative to control; assay type: functional; details: read-out: TGI
NCI-H69 [22] = test: Antitumor activity against human NCI-H69 cells xenografted in nude mouse assessed as tumor growth inhibition at 1.5 mg/kg, po administered daily measured twice weekly relative to control; assay type: functional; details: read-out: TGI
SHP77 = test: Antitumor activity against human SHP77 cells xenografted in nude mouse assessed as tumor growth inhibition at […] mg/kg, po administered daily measured twice weekly relative to control; assay type: functional; details: read-out: TGI
NCI-H510A = test: Effect on NCAM gene expression in human NCI-H510A cells at 1 uM measured after 4 days by qRT-PCR analysis; assay type: functional, cell-based; details: time 4.0 day
NCI-H526 [23] = test: In vivo inhibition of LSD1 in human NCI-H526 cells xenografted in nude mouse assessed as change in LIX1L gene expression measured after 24 hrs post single administration by qRT-PCR analysis; assay type: functional, organism-based; details: dose 0.06-135 mg/kg
NCI-H526 [24] = test: In vivo inhibition of LSD1 in human NCI-H526 cells xenografted in nude mouse assessed as change in ANXA6 gene expression measured after 24 hrs post single administration by qRT-PCR analysis; assay type: functional, organism-based; details: dose 0.06-135 mg/kg
NCI-H526 [25] = test: In vivo inhibition of LSD1 in human NCI-H526 cells xenografted in nude mouse assessed as change in TOX3 gene expression measured after 24 hrs post single administration by qRT-PCR analysis; assay type: functional, organism-based; details: dose 0.06-135 mg/kg
NCI-H526 [26] = test: In vivo inhibition of LSD1 in human NCI-H526 cells xenografted in nude mouse assessed as change in ODZ2 gene expression administrated daily for 5 days by qRT-PCR analysis; assay type: functional, organism-based; details: dose 0.02-135 mg/kg, time 5.0 day
NCI-H526 [27] = test: In vivo inhibition of LSD1 in human NCI-H526 cells xenografted in nude mouse assessed as change in IGFBP2 gene expression administrated daily for 5 days by qRT-PCR analysis; assay type: functional, organism-based; details: dose 0.02-135 mg/kg, time 5.0 day
NCI-H526 [28] = test: In vivo inhibition of LSD1 in human NCI-H526 cells xenografted in nude mouse assessed as change in TOX3 gene expression administrated daily for 5 days by qRT-PCR analysis; assay type: functional, organism-based; details: dose 0.02-135 mg/kg, time 5.0 day
NCI-H526 [29] = test: In vivo inhibition of LSD1 in human NCI-H526 cells xenografted in nude mouse assessed as change in ZEB1 gene expression administrated daily for 5 days by qRT-PCR analysis; assay type: functional, organism-based; details: dose 0.02-135 mg/kg, time 5.0 day
NCI-H1417 [30] = test: In vivo inhibition of LSD1 in human NCI-H1417 cells xenografted in nude mouse assessed as change in ZEB1 gene expression measured after 24 hrs post single administration by qRT-PCR analysis; assay type: functional, organism-based; details: dose 0.02-135 mg/kg
NCI-H1417 [31] = test: In vivo inhibition of LSD1 in human NCI-H1417 cells xenografted in nude mouse assessed as change in SAMD5 gene expression measured after 24 hrs post single administration by qRT-PCR analysis; assay type: functional, organism-based; details: dose 0.02-135 mg/kg

## O=C(O)c1ccc(CN2CCC(CN[C@@H]3C[C@H]3c3ccccc3)CC2)cc1 [GSK2879552]
[1]
  fold change (FC): 0.82
[2]
  fold change (FC): 1.1
[3]
  fold change (FC): 1.3
[4]
  Activity: 0.77
[5]
  Activity: 1.2
[6]
  Activity: 1.52
[7]
  Activity: 0.74
[8]
  Activity: 0.63
[9]
  Activity: 0.27
[10]
  Activity: 0.52
[11]
  fold change (FC): 9.72
[12]
  Activity: 0.43
[13]
  Activity: 0.91
[14]
  fold change (FC): 1.33
[15]
  fold change (FC): 0.45
[16]
  Activity: Toxic
[17]
  Activity: Toxic
NCI-H526 [18]
  Activity: 1319 mm3
NCI-H69 [19]
  Activity: 610 mm3
NCI-H69 [20]
  Activity: 592 mm3
NCI-H2171
  Activity: 1055 mm3
NCI-H526 [21]
  inhibition in vivo at 0.5 mg/kg: 48%
NCI-H69 [22]
  inhibition in vivo at 1.5 mg/kg: 49%
SHP77
  inhibition in vivo at 1.25 mg/kg: 17%
NCI-H510A
  Activity: inactive
NCI-H526 [23]
  inhibition: Dose-Dependent Effect
NCI-H526 [24]
  inhibition: Dose-Dependent Effect
NCI-H526 [25]
  inhibition: Dose-Dependent Effect
NCI-H526 [26]
  inhibition: Dose-Dependent Effect
NCI-H526 [27]
  inhibition: Dose-Dependent Effect
NCI-H526 [28]
  inhibition: Dose-Dependent Effect
NCI-H526 [29]
  inhibition: Dose-Dependent Effect
NCI-H1417 [30]
  inhibition: Dose-Dependent Effect
NCI-H1417 [31]
  inhibition: Dose-Dependent Effect
